# Columns and labels:
# HeLa [1] = experiment: Effect on cell cycle arrest in human HeLa cells transfected with NFkappaB-Luc assessed as cell aggregate level at 20 uM after 8 hrs by using propidium iodide staining by FACS analysis; format: functional
# HeLa [2] = experiment: Cell cycle arrest in TNF-alpha-stimulated human HeLa cells transfected with NFkappaB-Luc assessed as accumulation at diploid G2 phase at 0.5 uM after 8 hrs by using propidium iodide staining by FACS analysis; format: functional
# HeLa [3] = experiment: Cell cycle arrest in TNF-alpha-stimulated human HeLa cells transfected with NFkappaB-Luc assessed as accumulation at G2/G1 phase at 5 uM after 8 hrs by using propidium iodide staining by FACS analysis; format: functional
# HeLa [4] = experiment: Cell cycle arrest in TNF-alpha-stimulated human HeLa cells transfected with NFkappaB-Luc assessed as accumulation at diploid S phase at 5 uM after 8 hrs by using propidium iodide staining by FACS analysis; format: functional
# HeLa [5] = experiment: Cell cycle arrest in TNF-alpha-stimulated human HeLa cells transfected with NFkappaB-Luc assessed as accumulation at total S phase at 20 uM after 8 hrs by using propidium iodide staining by FACS analysis; format: functional
# HeLa [6] = experiment: Cell cycle arrest in TNF-alpha-stimulated human HeLa cells transfected with NFkappaB-Luc assessed as accumulation at diploid S phase at 0.5 uM after 8 hrs by using propidium iodide staining by FACS analysis; format: functional
# HeLa [7] = experiment: Cell cycle arrest in human HeLa cells transfected with NFkappaB-Luc assessed as accumulation at diploid G2 phase at 20 uM after 8 hrs by using propidium iodide staining by FACS analysis; format: functional
# HeLa [8] = experiment: Cell cycle arrest in TNF-alpha-stimulated human HeLa cells transfected with NFkappaB-Luc assessed as accumulation at diploid S phase at 0.05 uM after 8 hrs by using propidium iodide staining by FACS analysis; format: functional
# HeLa [9] = experiment: Cell cycle arrest in TNF-alpha-stimulated human HeLa cells transfected with NFkappaB-Luc assessed as accumulation at diploid G2 phase at 5 uM after 8 hrs by using propidium iodide staining by FACS analysis; format: functional
# HeLa [10] = experiment: Cell cycle arrest in TNF-alpha-stimulated human HeLa cells transfected with NFkappaB-Luc assessed as accumulation at G2/G1 phase at 0.1 uM after 8 hrs by using propidium iodide staining by FACS analysis; format: functional
# HeLa [11] = experiment: Effect on cell cycle arrest in TNF-alpha-stimulated human HeLa cells transfected with NFkappaB-Luc assessed as total background cell aggregate and debris level at 0.05 uM after 8 hrs by using propidium iodide staining by FACS analysis; format: functional
# HeLa [12] = experiment: Cell cycle arrest in TNF-alpha-stimulated human HeLa cells transfected with NFkappaB-Luc assessed as accumulation at G2/G1 phase at 10 uM after 8 hrs by using propidium iodide staining by FACS analysis; format: functional
# Blood = experiment: Antiinflammatory activity in human whole blood assessed as inhibition of IL-1-beta-stimulated IL6 production preincubated 2 hrs before IL1-beta challenge measured after 22 hrs by ELISA; format: functional, tissue-based
# HeLa [13] = experiment: Effect on cell cycle arrest in TNF-alpha-stimulated human HeLa cells transfected with NFkappaB-Luc assessed as total background cell aggregate and debris level at 20 uM after 8 hrs by using propidium iodide staining by FACS analysis; format: functional
# HeLa [14] = experiment: Effect on cell cycle arrest in TNF-alpha-stimulated human HeLa cells transfected with NFkappaB-Luc assessed as cell debris level at 0.05 uM after 8 hrs by using propidium iodide staining by FACS analysis; format: functional
# HeLa [15] = experiment: Cell cycle arrest in TNF-alpha-stimulated human HeLa cells transfected with NFkappaB-Luc assessed as accumulation at diploid S phase at 10 uM after 8 hrs by using propidium iodide staining by FACS analysis; format: functional
# HeLa [16] = experiment: Cell cycle arrest in TNF-alpha-stimulated human HeLa cells transfected with NFkappaB-Luc assessed as accumulation at total S phase at 5 uM after 8 hrs by using propidium iodide staining by FACS analysis; format: functional
# HeLa [17] = experiment: Cell cycle arrest in TNF-alpha-stimulated human HeLa cells transfected with NFkappaB-Luc assessed as accumulation at diploid stage at 0.05 uM after 8 hrs by using propidium iodide staining by FACS analysis; format: functional
# HeLa [18] = experiment: Cell cycle arrest in TNF-alpha-stimulated human HeLa cells transfected with NFkappaB-Luc assessed as accumulation at diploid stage at 0.5 uM after 8 hrs by using propidium iodide staining by FACS analysis; format: functional
# [19] = Cytotoxicity against human whole blood lymphocytes assessed as survival cell count in millions at 3 uM after 24 hrs by trypan blue staining-based hemocytometry
# HeLa [20] = experiment: Cell cycle arrest in TNF-alpha-stimulated human HeLa cells transfected with NFkappaB-Luc assessed as accumulation at total S phase at 10 uM after 8 hrs by using propidium iodide staining by FACS analysis; format: functional
# HeLa [21] = experiment: Effect on cell cycle arrest in TNF-alpha-stimulated human HeLa cells transfected with NFkappaB-Luc assessed as total background cell aggregate and debris level at 1 uM after 8 hrs by using propidium iodide staining by FACS analysis; format: functional
# HeLa [22] = experiment: Cell cycle arrest in TNF-alpha-stimulated human HeLa cells transfected with NFkappaB-Luc assessed as accumulation at diploid stage at 5 uM after 8 hrs by using propidium iodide staining by FACS analysis; format: functional
# [23] = Cytotoxicity against IL-1-beta-stimulated human whole blood lymphocytes assessed as survival cell count in millions at 3 uM after 24 hrs by trypan blue staining-based hemocytometry
# HeLa [24] = experiment: Cell cycle arrest in TNF-alpha-stimulated human HeLa cells transfected with NFkappaB-Luc assessed as accumulation at diploid S phase at 0.1 uM after 8 hrs by using propidium iodide staining by FACS analysis; format: functional
# HeLa [25] = experiment: Effect on cell cycle arrest in TNF-alpha-stimulated human HeLa cells transfected with NFkappaB-Luc assessed as total background cell aggregate and debris level at 10 uM after 8 hrs by using propidium iodide staining by FACS analysis; format: functional
# HeLa [26] = experiment: Cell cycle arrest in TNF-alpha-stimulated human HeLa cells transfected with NFkappaB-Luc assessed as accumulation at diploid G1 phase at 20 uM after 8 hrs by using propidium iodide staining by FACS analysis; format: functional
# [27] = Cytotoxicity against IL-1-beta-stimulated human whole blood lymphocytes assessed as survival cell count in millions at 10 uM after 24 hrs by trypan blue staining-based hemocytometry
# [28] = Inhibition of NF-kappaB-mediated gene transcription expressed in TNF-alpha-stimulated human HeLa cells for 30 mins before TNFalpha challenge measured after 8 hrs by steady-glo luciferase reporter gene assay; format: cell-based
# HeLa [29] = experiment: Effect on cell cycle arrest in TNF-alpha-stimulated human HeLa cells transfected with NFkappaB-Luc assessed as cell aggregate level at 0.5 uM after 8 hrs by using propidium iodide staining by FACS analysis; format: functional
# HeLa [30] = experiment: Effect on cell cycle arrest in TNF-alpha-stimulated human HeLa cells transfected with NFkappaB-Luc assessed as cell aggregate level at 0.1 uM after 8 hrs by using propidium iodide staining by FACS analysis; format: functional
# HeLa [31] = experiment: Effect on cell cycle arrest in TNF-alpha-stimulated human HeLa cells transfected with NFkappaB-Luc assessed as cell debris level at 10 uM after 8 hrs by using propidium iodide staining by FACS analysis; format: functional
# [32] = Cytotoxicity against IL-1-beta-stimulated human whole blood lymphocytes assessed as survival cell count in millions at 20 uM after 24 hrs by trypan blue staining-based hemocytometry
compound,measurement,setting,value
CCOC(=O)[C@]1(c2ccccc2)N=C(c2ccccc2)N(Cc2ccccc2)[C@@H]1c1ccccc1 (racemic),Activity,HeLa [1],0%
same,Activity,HeLa [2],13.4%
same,Activity,HeLa [3],1.91%
same,Activity,HeLa [4],19.8%
same,Activity,HeLa [5],19.29%
same,Activity,HeLa [6],22.52%
same,Activity,HeLa [7],13.33%
same,Activity,HeLa [8],22.8%
same,Activity,HeLa [9],13.84%
same,Activity,HeLa [10],1.92%
same,Activity,HeLa [11],1.06%
same,Activity,HeLa [12],1.91%
same,IC50,Blood,2.5 µM
same,Activity,HeLa [13],5.59%
same,Activity,HeLa [14],2.47%
same,Activity,HeLa [15],16.8%
same,Activity,HeLa [16],19.8%
same,Activity,HeLa [17],100%
same,Activity,HeLa [18],100%
same,Activity,[19],0.86 mL⁻¹
same,Activity,HeLa [20],16.8%
same,Activity,HeLa [21],1.87%
same,Activity,HeLa [22],100%
same,Activity,[23],1.06 mL⁻¹
same,Activity,HeLa [24],21.47%
same,Activity,HeLa [25],6.27%
same,Activity,HeLa [26],65.96%
same,Activity,[27],0.92 mL⁻¹
same,EC50,[28],2.5 µM
same,Activity,HeLa [29],0%
same,Activity,HeLa [30],0%
same,Activity,HeLa [31],15.28%
same,Activity,[32],0.98 mL⁻¹

# From ChEMBL document CHEMBL1138438, “Structural-activity relationship study of highly-functionalized imidazolines as potent inhibitors of nuclear transcription factor-kappaB mediated IL-6 production” (Bioorg Med Chem, 2009)
